A short description of this data set: Aqueous solubility (leaching) of Co, OECD-105 flask method. It is filed as physicochemical. As to the method: Experiments are performed to determine the aqueous solubility of the Co in the invented polymers. These tests are relevant as indicators for the bioavailability of Co.
[…] The leaching tests are conducted according to the OECD-105 standard flask method, as described in the OECD Guideline for the Testing of Chemicals, adopted on 27 Jul. 1995, and in the Official Journal of the European Communities L 383 A, 54-62 (1992).
The solubility of 3 typical polymers according to the invention is compared to that of 3 commercial products.

On to Co-acetylacetonate, for which the “Solubility of Co in 0.9% NaCl solution, Co” value (solvent: 0.9% NaCl) amounted to 1400 µg/mL. Besides, the “Solubility of Co in water, Co” value (solvent: water) came to 1600 µg/mL.

(Values after patent publication US8425997B2, “Cobalt bearing polymeric compositions” (Umicore, priority 2008, dated 2013).)
